Publication PMC12867150, “A fungi-derived cyclic peptide enhances Th9-mediated antitumor immunity by targeting ZAP70 and SREBP1” (The Journal of Clinical Investigation, 2025)

Key:
[1] = system: natural killer (NK) cells; test: Flow cytometry of NK cells (S1L-M); format: in vivo, mouse; design: key to Frequencies of NK in Spleen / Frequencies of NK in LN: % of cells; conditions: for Frequencies of NK in LN: Supplemental Figure 1M left; for number of NK in LN: Supplemental Figure 1M right; for NK (NK1.1) gate number: representative flow plot; for Frequencies of NK in Spleen: Supplemental Figure 1L left; for number of NK in Spleen: Supplemental Figure 1L right
Experimental: C57BL/6 mice were subcutaneously injected with 5 × 10^5 B16-OVA melanoma cells. Five days after tumor implantation, mice received an intravenous infusion of 2 × 10^6 in vitro–differentiated Th9 cells (cultured for 5 days), which were derived from OT-II CD45.1 donor mice, accompanied by 4 × 10^5 OVA peptide–pulsed DCs via the tail vein. To enhance T cell engraftment and facilitate lymphodepletion, a single intraperitoneal injection of cyclophosphamide (200 mg/kg, Sigma, catalog C0768) was administered 1 day prior to T cell transfer. Mice were euthanized at designated time points for the collection and analysis of spleens, tumor-draining lymph nodes, and tumor tissues.
Details regarding staining panels (human and mouse), reagents (including clones and catalog numbers), acquisition settings, compensation/controls, and analysis procedures are provided in Supplemental Methods. […]
Figure S1. EpA enhances immune responses. […]
(L and M) Representative plots, frequencies, and total numbers of natural killer (NK) cells in spleens (L) and LNs (M). Data in (A–M) are shown as mean ± SEM from n = 4 mice per group. Statistical analysis was performed using two-way ANOVA with Tukey’s post hoc test (A), one-way ANOVA with Tukey’s post hoc test (B) or two-tailed unpaired Student’s t-test (D and G–M). ns, not significant. *p < 0.05, **p < 0.01, ****p < 0.0001.
(also on this page, place not known: Mouse weight (g) CtrlEpA CtrlEpA CtrlEpA0 I CD45.1+ T cells (%) CtrlEpA CD4+ T cells (%) CtrlEpA CtrlEpA CtrlEpA FSC CD8 CD8 FSC FSC FSC BNumber of CD45.1+ T cells (×103 per mgĎ Number of CD4+ T cells (×104 per mgĎ DC (%)NK cells (%) NK cells (%) DC (%) Number of DC (×103 per mg) Number of NK cells (×105) Number of NK cells (×103 per mg) Number of DC (×105) FSC FSC FSC CD8 CtrlEpA CtrlEpA CtrlEpA CD8+ T cells (%) Number of CD8+ T cells (×104 per mgĎ nsns ns nsns ns 40 IL-6 (pg/ml))

[2] = system: ZAP70; test: CETSA of ZAP70 in Jurkat cell lysates (Figure 5C-D); format: binding, Jurkat cells; conditions: result in words
Experimental: Jurkat or 293T cells were washed twice with PBS and resuspended in PBS containing protease and phosphatase inhibitors. Cells were lysed by 3 cycles of liquid nitrogen snap-freezing and thawing at room temperature. […] One aliquot from each group was maintained at room temperature, and the others were heated for 3 minutes at 3 °C increments from 43°C to 64°C. Samples were then analyzed by SDS-PAGE and immunoblotting to assess protein thermal stability and compound binding.

In the case of anteiso-C15 Leu7 surfactin [EpA], the “Frequencies of NK in LN” value ([1]; LN, replicate 1) is reported as 1.5, the “Frequencies of NK in LN” value ([1]; LN, replicate 2) is reported as 1.56 and the “Frequencies of NK in LN” value ([1]; LN, replicate 3) is reported as 7.14. The “Frequencies of NK in LN” value ([1]; LN, replicate 4) was 7.79, the “number of NK in LN” value ([1]; LN, replicate 1) was 2211.77 and the “number of NK in LN” value ([1]; LN, replicate 2) was 2015.49. The “number of NK in LN” value ([1]; LN, replicate 3) was 5620.7, the “number of NK in LN” value ([1]; LN, replicate 4) was 5844.48 and the “NK (NK1.1) gate number” value ([1]; LN, Figure S1M) was 1.56. The “Frequencies of NK in Spleen” value ([1]; Spleen, replicate 1) was 14.2, the “Frequencies of NK in Spleen” value ([1]; Spleen, replicate 2) was 14.6 and the “Frequencies of NK in Spleen” value ([1]; Spleen, replicate 3) was 14.4. For the same substance, the “Frequencies of NK in Spleen” value ([1]; Spleen, replicate 4) was 13.7, the “number of NK in Spleen” value ([1]; Spleen, replicate 1) was 1287047 and the “number of NK in Spleen” value ([1]; Spleen, replicate 2) was 1289552. The “number of NK in Spleen” value ([1]; Spleen, replicate 3) was 1303518, the “number of NK in Spleen” value ([1]; Spleen, replicate 4) was 1053933 and the “NK (NK1.1) gate number” value ([1]; Spleen, Figure S1L) was 14.2. For the same substance, the NK cells ([1]; result in words) was “increased only in the spleen” and the “thermal stability of ZAP70” value [2] was “increased thermal stability of ZAP70”.
